Reference: patent publication EP4800015A1, “AZABICYCLO DERIVATIVE AND PREPARATION METHOD THEREFOR, AND USE” (Zhejiang Hisun Pharmaceutical Co., Ltd., priority 2023, dated 2025)

Legend:
[1] = Pharmacokinetic test in mice after intragastric administration; format: in vivo; conditions: male, mouse, plasma, ICR mice, Oral (10 mg/kg); for AUC(0-t): read-out: Area under curve AUC0-t; for half-life: read-out: Half-life T1/2 (converted); for Cmax: read-out: Plasma concentration Cmax
Protocol: ICR mice were used as test animals, the plasma concentrations of the control compound HRO761 and the compounds of the present disclosure at different time points after intragastric administration were determined by LC/MS/MS method, and the pharmacokinetic characteristics of the compounds of the present disclosure in mice were studied.
ICR mice, male, 30.8 to 38.0 g, purchased from Vital River Laboratory Animal Technology Co., Ltd.
An appropriate amount of the test compound was weighed, and an appropriate amount of DMA (N,N-dimethylacetamide), 30% Solutol HS15 (30% polyethylene glycol-15 hydroxystearate), and Saline (saline) were added sequentially, the mixture was ultrasonicated and vortex mixed to prepare a 1 mg/mL dosing formulation. The ratio of DMA:30% Solutol HS15:Saline was 5:5:90 (v/v/v).
After overnight fasting, ICR mice in each test compound injection group (9 mice per group) were administered intragastrically (PO, compound dose was 10 mg/kg, administration volume was 10 mL/kg), and food was given 4 hours after administration.
About 0.1 mL of blood was collected via the orbital cavity before administration and at 0.25 h, 0.5 h, 1 h, 2 h, 4 h, 8 h, 10 h, and 24 h after administration, and whole blood samples were placed in anticoagulant tubes containing EDTA-K2. The samples were placed on ice after collection, and plasma was separated by centrifugation (centrifugation conditions: 1500 g, 10 minutes). The collected plasma was stored at -40 to -20 °C before analysis.
The content of the test compound in mouse plasma after intragastric administration was determined by LC-MS/MS.

recombinant human WRN = biological target: T1, recombinant human WRN (Homo sapiens, UniProt Q14191); assay: Inhibition of WRN enzyme activity (ATPase), ADP-Glo Kinase Assay; format: biochemical; conditions: WRN protein 5 nM, Flap 0.1 nM, ATP 30 µM; read-out: IC50
T1 construct: purchased BPS 101264
Method in brief: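 Recombinant human WRN (5 nM) was preincubated with compound (1000–0.004 nM) for 15 min at room temperature. Flap26 5'-flap DNA (0.1 nM) and 30 µM ATP were then added for 10 min in Tris pH 7.5, MgCl2, NaCl, BSA, Pluronic buffer. ADP was detected by ADP-Glo luminescence, and IC50 was obtained by nonlinear regression versus a 0.1% DMSO control.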

RL95-2 cells = assay: Inhibition of RL95-2 cell proliferation (CellTiter-Glo); format: cell-based; conditions: Homo sapiens; RL95-2 cells (MSI-H), 120 hours
Method in brief: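 RL95-2 (MSI-H) cells, 500/well in DMEM/F12 with 10% FBS, adhered overnight, then treated 120 h at 37 °C, 5% CO2 with compound at final 1.52-10000 nM. Viability by CellTiter-Glo luminescence. Inhibition relative to 0.1% DMSO control; IC50 from nonlinear regression of log concentration versus inhibition.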

SW48 cells = assay: Inhibition of SW48 cell proliferation (CellTiter-Glo); format: cell-based; conditions: Homo sapiens; SW48 cells (MSI-H), 120 hours
Method in brief: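 SW48 (MSI-H) cells in L-15 with 10% FBS were seeded at 500 per well, cultured overnight at 37 °C, then exposed to compound at final concentrations of 10000 nM to 1.52 nM for 120 h. Viability was read by CellTiter-Glo luminescence, with inhibition relative to 0.1% DMSO. IC50 from nonlinear regression of log concentration versus inhibition.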

T1 sequence (Q14191 whole entry): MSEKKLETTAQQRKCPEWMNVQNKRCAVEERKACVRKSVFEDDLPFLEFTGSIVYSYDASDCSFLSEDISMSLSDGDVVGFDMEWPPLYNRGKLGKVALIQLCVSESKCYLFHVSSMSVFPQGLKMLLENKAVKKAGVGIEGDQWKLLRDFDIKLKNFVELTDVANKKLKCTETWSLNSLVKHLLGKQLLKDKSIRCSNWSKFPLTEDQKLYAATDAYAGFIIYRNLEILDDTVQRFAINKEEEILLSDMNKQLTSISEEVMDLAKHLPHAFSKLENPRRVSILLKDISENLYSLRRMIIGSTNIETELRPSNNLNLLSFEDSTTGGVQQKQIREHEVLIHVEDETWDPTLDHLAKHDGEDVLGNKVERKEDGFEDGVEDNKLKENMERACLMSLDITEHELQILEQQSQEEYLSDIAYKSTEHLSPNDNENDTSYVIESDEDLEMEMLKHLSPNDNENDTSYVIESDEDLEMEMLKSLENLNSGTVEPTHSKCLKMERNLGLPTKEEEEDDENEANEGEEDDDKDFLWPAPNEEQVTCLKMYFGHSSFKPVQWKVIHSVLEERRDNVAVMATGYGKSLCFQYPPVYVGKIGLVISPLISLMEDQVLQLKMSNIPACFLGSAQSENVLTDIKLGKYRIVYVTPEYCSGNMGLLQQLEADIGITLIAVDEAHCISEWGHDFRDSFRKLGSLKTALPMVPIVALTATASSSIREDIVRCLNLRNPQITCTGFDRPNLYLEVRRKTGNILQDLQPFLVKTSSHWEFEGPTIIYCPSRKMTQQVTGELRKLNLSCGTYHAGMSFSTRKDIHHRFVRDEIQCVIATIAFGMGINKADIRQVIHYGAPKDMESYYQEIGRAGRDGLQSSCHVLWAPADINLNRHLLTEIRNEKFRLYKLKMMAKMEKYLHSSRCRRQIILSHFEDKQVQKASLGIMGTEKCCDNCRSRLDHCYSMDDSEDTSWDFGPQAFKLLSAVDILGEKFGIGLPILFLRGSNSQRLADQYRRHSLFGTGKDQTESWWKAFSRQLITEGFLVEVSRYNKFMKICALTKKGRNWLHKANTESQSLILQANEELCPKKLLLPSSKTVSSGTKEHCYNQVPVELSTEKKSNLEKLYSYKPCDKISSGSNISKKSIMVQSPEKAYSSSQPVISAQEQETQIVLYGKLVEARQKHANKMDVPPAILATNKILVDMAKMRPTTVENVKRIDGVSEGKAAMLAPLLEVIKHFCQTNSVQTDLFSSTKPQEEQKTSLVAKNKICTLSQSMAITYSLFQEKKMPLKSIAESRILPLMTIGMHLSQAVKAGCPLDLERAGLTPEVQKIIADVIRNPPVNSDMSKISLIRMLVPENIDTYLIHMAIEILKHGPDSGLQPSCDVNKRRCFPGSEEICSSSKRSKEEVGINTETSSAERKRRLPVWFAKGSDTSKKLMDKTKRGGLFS

Structure (SMILES) | AUC(0-t) [1] [ng·h/mL] | half-life [1] [h] | Cmax [1] [ng/mL] | IC50 (recombinant human WRN) [nM] | IC50 (SW48 cells) [nM] | IC50 (RL95-2 cells) [nM]
CCc1c(N2CCN(C(=O)c3ncnc(C)c3O)CC2)c(=O)n2nc(-c3ccc4nn(C)cc4c3)nc2n1CC(=O)Nc1ccc(C(F)(F)F)cc1Cl [Example 99, N-(2-Chloro-4-(trifluoromethyl)phenyl)-2-(5-ethyl-6-(4-(5-hydroxy-6-methylpyrimidine-4-carbonyl)piperazin-1-yl)-2-(2-methyl-2H-indazol-5-yl)-7-oxo-[1,2,4]triazolo[1,5-a]pyrimidin-4(7H)-yl)acetamide] | – | – | – | 1 to 100 | 1 to 100 | 1 to 100
CCc1c(N2CCN(C(=O)c3ncnc(C)c3O)CC2)c(=O)n2nc(-c3ccc4occc4c3)nc2n1CC(=O)Nc1ccc(S(F)(F)(F)(F)F)cc1Cl [Example 85, 2-(2-(Benzofuran-5-yl)-5-ethyl-6-(4-(5-hydroxy-6-methylpyrimidine-4-carbonyl)piperazin-1-yl)-7-oxo-[1,2,4]triazolo[1,5-a]pyrimidin-4(7H)-yl)-N-(2-chloro-4-(pentafluoro-λ^6-sulfaneyl)phenyl) acetamide] | – | – | – | 1 to 100 | 1 to 100 | 1 to 100
CCc1c(N2CCN(C(=O)c3ncnc(C)c3O)CC2)c(=O)n2nc(-c3ccc4c(ccn4C(C)C)c3)nc2n1CC(=O)Nc1ccc(C(F)(F)F)cc1Cl [Example 184, N-(2-chloro-4-(trifluoromethyl)phenyl)-2-(5-ethyl-6-(4-(5-hydroxy-6-methylpyrimidine-4-carbonyl)piperazin-1-yl)-2-(1-isopropyl-1H-indol-5-yl)-7-oxo-[1,2,4]triazolo[1,5-a]pyrimidin-4(7H)-yl) acetamide] | – | – | – | 1 to 100 | 1 to 100 | 1 to 100
CCc1c(N2CCN(C(=O)c3ncnc(C)c3O)CC2)c(=O)n2nc(C3=CCCCCC3)nc2n1CC(=O)Nc1ccc(C(F)(F)F)cc1Cl [Example 6, N-(2-chloro-4-(trifluoromethyl)phenyl)-2-(2-(cyclohept-1-en-1-yl)-5-ethyl-6-(4-(5-hydroxy-6-methylpyrimidine-4-carbonyl)piperazin-1-yl)-7-oxo-[1,2,4]triazolo[1,5-a]pyrimidin-4(7H)-yl)acetamide] | 39700 | 1.26 | 15900 | < 1 | 1 to 100 | 1 to 100
CCc1c(N2CCN(C(=O)c3ncnc(C)c3O)CC2)c(=O)n2nc(C=C3CCC3)nc2n1CC(=O)Nc1ccc(S(F)(F)(F)(F)F)cc1 [Example 53, 2-(2-(cyclobutylidenemethyl)-5-ethyl-6-(4-(5-hydroxy-6-methylpyrimidine-4-carbonyl)piperazin-1-yl)-7-oxo-[1,2,4]triazolo[1,5-a]pyrimidin-4(7H)-yl)-N-(4-(pentafluoro-λ^6-sulfaneyl)phenyl)ace tamide] | – | – | – | 1 to 100 | 1 to 100 | 1 to 100
CCc1c(N2CCN(C(=O)c3ncnc(C)c3O)CC2)c(=O)n2nc(C3=CC4COCC4C3)nc2n1CC(=O)Nc1ccc(C(F)(F)F)cc1Cl (stereo not drawn) [Example 161, N-(2-chloro-4-(trifluoromethyl)phenyl)-2-(5-ethyl-6-(4-(5-hydroxy-6-methylpyrimidine-4-carbonyl)piperazin-1-yl)-7-oxo-2-(3,3a,4,6a-tetrahydro-1H-cyclopenta[c]furan-5-yl)-[1,2,4]triazolo[1,5-a]pyrimidin-4(7H)-yl)acetamide] | – | – | – | 1 to 100 | 1 to 100 | 1 to 100

Now from value to molecule, other results behind:

AUC(0-t) [1] [ng·h/mL] | half-life [1] [h] | Cmax [1] [ng/mL] | IC50 (recombinant human WRN) [nM] | IC50 (SW48 cells) [nM] | Structure (SMILES) | IC50 (RL95-2 cells) [nM]
66600 | 2.27 | 18100 | 1 to 100 | 1 to 100 | CCc1c(N2CCN(C(=O)c3ncnc(C)c3O)CC2)c(=O)n2nc(C3=CCCCCC3)nc2n1CC(=O)Nc1ccc(S(F)(F)(F)(F)F)cc1 [Example 27, 2-(2-(cyclohept-1-en-1-yl)-5-ethyl-6-(4-(5-hydroxy-6-methylpyrimidine-4-carbonyl)piperazin-1-yl)-7-oxo-[1,2,4]triazolo[1,5-a]pyrimidin-4(7H)-yl)-N-(4-(pentafluoro-λ^66-sulfaneyl)phenyl)acet amide] | 1 to 100
330000 | 4.85 | 45000 | 1 to 100 | 1 to 100 | Cc1ncnc(C(=O)N2CCN(c3c(C)n(CC(=O)Nc4ccc(C(F)(F)F)cc4Cl)c4nc(-c5ccc6c(c5)CCO6)nn4c3=O)CC2)c1O [Example 106, N-(2-chloro-4-(trifluoromethyl)phenyl)-2-(2-(2,3-dihydrobenzofuran-5-yl)-6-(4-(5-hydroxy-6-methylpyrimidine-4-carbonyl)piperazin-1-yl)-5-methyl-7-oxo-[1,2,4]triazolo[1,5-a]pyrimidin-4(7H) -yl)acetamide] | 1 to 100
24300 | 2.75 | 7120 | 1 to 100 | 1 to 100 | CCc1c(N2CCN(C(=O)c3ncnc(C)c3O)CC2)c(=O)n2nc(-c3ccc4c(ccn4C)c3)nc2n1CC(=O)Nc1ccc(C(F)(F)F)cc1Cl [Example 103, N-(2-chloro-4-(trifluoromethyl)phenyl)-2-(5-ethyl-6-(4-(5-hydroxy-6-methylpyrimidine-4-carbonyl)piperazin-1-yl)-2-(1-methyl-1H-indol-5-yl)-7-oxo-[1,2,4]triazolo[1,5-a]pyrimidin-4(7H)-yl)ac etamide] | 1 to 100
28500 | 2.3 | 9920 | 1 to 100 | 1 to 100 | CCc1c(N2CCN(C(=O)c3ncnc(C)c3O)CC2)c(=O)n2nc(-c3ccc4occc4c3)nc2n1CC(=O)Nc1ccc(S(F)(F)(F)(F)F)cc1 [Example 97, 2-(2-(benzofuran-5-yl)-5-ethyl-6-(4-(5-hydroxy-6-methylpyrimidine-4-carbonyl)piperazin-1-yl)-7-oxo-[1,2,4]triazolo[1,5-a]pyrimidin-4(7H)-yl)-N-(4-(pentafluoro-λ^6-sulfaneyl)phenyl)acetamide] | 1 to 100
– | – | – | 1 to 100 | 1 to 100 | CCc1c(N2CCN(C(=O)c3ncccc3O)CC2)c(=O)n2nc(C3=CC4CC(O)CC4C3)nc2n1CC(=O)Nc1ccc(C(F)(F)F)cc1Cl (stereo not drawn) [Example 121, N-(2-chloro-4-(trifluoromethyl)phenyl)-2-(5-ethyl-2-(5-hydroxy-1,3a,4,5,6,6a-hexahydropentalen-2-yl)-6-(4-(3-hydroxypicolinoyl)piperazin-1-yl)-7-oxo-[1,2,4]triazolo[1,5-a]pyrimidin-4(7H)-yl) acetamide] | 1 to 100
– | – | – | 1 to 100 | 1 to 100 | CCc1c(N2CCN(C(=O)c3ncnc(C)c3O)CC2)c(=O)n2nc(-c3ccc4cn[nH]c4c3)nc2n1CC(=O)Nc1ccc(C(F)(F)F)cc1Cl [Example 156, N-(2-chloro-4-(trifluoromethyl)phenyl)-2-(5-ethyl-6-(4-(5-hydroxy-6-methylpyrimidine-4-carbonyl)piperazin-1-yl)-2-(1H-indazol-6-yl)-7-oxo-[1,2,4]triazolo[1,5-a]pyrimidin-4(7H)-yl)acetamide] | 1 to 100
– | – | – | 1 to 100 | 1 to 100 | CCc1c(N2CCN(C(=O)c3ncccc3O)CC2)c(=O)n2nc(C3=CC4CC(OC)CC4C3)nc2n1CC(=O)Nc1ccc(C(F)(F)F)cc1Cl (stereo not drawn) [Example 186, N-(2-chloro-4-(trifluoromethyl)phenyl)-2-(5-ethyl-6-(4-(3-hydroxypicolinoyl)piperazin-1-yl)-2-(5-methoxy-1,3a,4,5,6,6a-hexahydropentalen-2-yl)-7-oxo-[1,2,4]triazolo[1,5-a]pyrimidin-4(7H)-yl)acetamide] | 1 to 100
